CCc1cccc2c3c([nH]c12)C(CC)(CC(=O)O)OCC3 (stereo unspecified)
solubility (mole fraction)
Conditions	278.15 K	283.15 K	288.15 K	293.15 K	298.15 K	303.15 K	308.15 K	313.15 K	318.15 K	323.15 K
in acetone	0.0935	0.101	0.109	0.117	0.127	0.136	0.147	0.157	0.168	0.178
in dichloromethane	0.00979	0.0124	0.0155	0.019	0.0229	0.0271	–	–	–	–
in isobutanol	0.0224	0.0265	0.0316	0.0382	0.0476	0.0594	0.0707	0.086	0.104	0.123
in isobutyl acetate	0.0428	0.0475	0.0529	0.0584	0.0649	0.07	0.0774	0.0861	0.0959	0.108
in isopentyl acetate	0.0413	0.0457	0.0509	0.0563	0.0629	0.068	0.0758	0.084	0.0944	0.105
in isopropanol	0.0267	0.0307	0.0363	0.0444	0.0547	0.0669	0.078	0.0907	0.109	0.127
in methyl acetate	0.0464	0.0519	0.0578	0.0638	0.0687	0.0769	0.0834	0.0921	0.101	0.111
in n-butanol	0.0371	0.0422	0.0485	0.0573	0.0675	0.078	0.0873	0.0994	0.117	0.135
in n-butyl acetate	0.0455	0.0507	0.0563	0.0627	0.0682	0.0748	0.0825	0.0915	0.101	0.111
in n-pentyl acetate	0.0453	0.0503	0.0558	0.0621	0.0666	0.0738	0.0803	0.0892	0.0983	0.108
in n-propanol	0.0342	0.0391	0.0452	0.0548	0.0648	0.0751	0.0849	0.0969	0.114	0.131
in toluene	0.00117	0.00147	0.0019	0.0024	0.00316	0.00394	0.00501	0.0065	0.00838	0.0108

— BigSolDB 2.1
